Test: Inhibition interleukin-5 in mouse Y16 cells after 48 hrs by WST-1 assay

Row | Structure (SMILES) | IC50 [µM]
1 | O=C(CCc1coc2cccc(OCC3CCCCC3)c2c1=O)c1ccccc1 | > 30
2 | O=c1c(CCC(O)c2ccc(Cl)c(Cl)c2)coc2cccc(OCC3CCCCC3)c12 (centres undefined) | 7.9
3 | Cc1ccc(C(O)CCc2coc3cccc(OCC4CCCCC4)c3c2=O)cc1 (centres undefined) | > 30
4 | O=C(CCc1coc2cccc(OCC3CCCCC3)c2c1=O)c1ccc(F)cc1 | 20
5 | O=c1c(CCC(O)c2ccc(Cl)cc2)coc2cccc(OCC3CCCCC3)c12 (centres undefined) | 9
6 | CC(C)(C)c1ccc(C(O)CCc2coc3cccc(OCC4CCCCC4)c3c2=O)cc1 (centres undefined) | > 30
7 | COc1ccc(C(=O)CCC2COc3cccc(OCC4CCCCC4)c3C2=O)cc1 (centres undefined) | > 30
8 | O=C(CCc1coc2cccc(OCC3CCCCC3)c2c1=O)c1ccc(O)cc1 | 15
9 | O=C(CCc1coc2cccc(OCC3CCCCC3)c2c1=O)c1ccc(Cl)cc1 | 14
10 | O=c1c(CCC(O)c2ccc(C(F)(F)F)cc2)coc2cccc(OCC3CCCCC3)c12 (centres undefined) | > 30
11 | N#Cc1ccc(C(O)CCc2coc3cccc(OCC4CCCCC4)c3c2=O)cc1 (centres undefined) | 15
12 | N#Cc1ccc(C(=O)CCc2coc3cccc(OCC4CCCCC4)c3c2=O)cc1 | 17
13 | O=c1c(CCC(O)c2ccc(O)cc2)coc2cccc(OCC3CCCCC3)c12 (centres undefined) | 4
14 | O=C(CCc1coc2cccc(OCC3CCCCC3)c2c1=O)c1ccc(C(F)(F)F)cc1 | > 30
15 | COc1ccc(C(=O)CCc2coc3cccc(OCC4CCCCC4)c3c2=O)cc1 | 16
16 | O=C(CCc1coc2cccc(OCC3CCCCC3)c2c1=O)c1ccc(Cl)c(Cl)c1 | 22
17 | CC(C)(C)c1ccc(C(=O)CCc2coc3cccc(OCC4CCCCC4)c3c2=O)cc1 | > 30
18 | O=c1c(CCC(O)c2ccc(F)cc2)coc2cccc(OCC3CCCCC3)c12 (centres undefined) | 9
19 | COc1ccc(C(O)CCc2coc3cccc(OCC4CCCCC4)c3c2=O)cc1 (centres undefined) | 6.5
20 | O=C(CCC1COc2cccc(OCC3CCCCC3)c2C1=O)c1ccc(Cl)c(Cl)c1 (centres undefined) | > 30
21 | Cc1ccc(C(=O)CCc2coc3cccc(OCC4CCCCC4)c3c2=O)cc1 | > 30
22 | O=c1c(CCC(O)c2ccc3ccccc3c2)coc2cccc(OCC3CCCCC3)c12 (centres undefined) | 17
23 | O=C(CCc1coc2cccc(OCC3CCCCC3)c2c1=O)c1ccc2ccccc2c1 | > 30
24 | O=c1c(CCC(O)c2ccccc2)coc2cccc(OCC3CCCCC3)c12 (centres undefined) | 12
